Test results taken from ChEMBL document CHEMBL1201862, “PubChem BioAssay data set” (2004).
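Results reflect a 48-hour exposure of cells in 96-well plates to compound at five concentrations. GI50 = concentration required for 50% inhibition of growth.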 The source made the active and inactive calls. Rule as the data show it: active = GI50 up to about 1.1 µM and inactive = higher.

Experiments:
Test in all cases: NCI tumour cell line growth inhibition, 48 h
[1] = test system: UACC-62
[2] = test system: COLO 205
[3] = test system: M14
[4] = test system: SK-MEL-2
[5] = test system: CAKI-1
[6] = test system: NCI-H226
[7] = test system: RPMI-8226
[8] = test system: SW-620
[9] = test system: SF-268
[10] = test system: K562
[11] = test system: SN12C
[12] = test system: KM12
[13] = test system: HL-60
[14] = test system: HCT-15
[15] = test system: OVCAR-3
[16] = test system: HCC 2998

Row | SMILES | GI50 [1] | GI50 [2] | GI50 [3] | GI50 [4] | GI50 [5] | GI50 [6] | GI50 [7] | GI50 [8] | GI50 [9] | GI50 [10] | GI50 [11] | GI50 [12] | GI50 [13] | GI50 [14] [µM] | GI50 [15] | GI50 [16]
1 | O=c1cc(-c2ccccc2)[nH]c2cc(F)cc(F)c12 | 16.1 µM (inactive) | 16.1 µM (inactive) | 30.3 µM (inactive) | 18.2 µM (inactive) | 21.8 µM (inactive) | 20.9 µM (inactive) | 30.1 µM (inactive) | 14.4 µM (inactive) | > 100 µM (inactive) | 11.9 µM (inactive) | 52.5 µM (inactive) | 4.56 µM (inactive) | 21.8 µM (inactive) | 6.59 | – | –
2 | CCS[C@H]1NC(=O)C1[C@H](C)O[Si](C)(C)C(C)(C)C (some centres undefined) | > 100 µM (inactive) | > 100 µM (inactive) | – | > 100 µM (inactive) | 74 µM (inactive) | – | 31.6 µM (inactive) | > 100 µM (inactive) | > 100 µM (inactive) | 34.3 µM (inactive) | > 100 µM (inactive) | > 100 µM (inactive) | – | > 100 | > 100 µM (inactive) | –
3 | CC(=O)NC1=C(C)C(=O)c2c(nc3n2CCC3O)C1=N (centres undefined) | 4.71 µM (inactive) | 18.9 µM (inactive) | – | 9.68 µM (inactive) | 13.4 µM (inactive) | 17.4 µM (inactive) | > 100 µM (inactive) | 13.3 µM (inactive) | 10.3 µM (inactive) | 8.67 µM (inactive) | 6.19 µM (inactive) | 18.5 µM (inactive) | 4.49 µM (inactive) | 19.2 | 2.98 µM (inactive) | 21.3 µM (inactive)
4 | Cc1nc(C(N)=S)sc1C(=O)CC(=O)C(=O)Nc1c(C(C)C)cccc1C(C)C | 42.5 µM (inactive) | 43.3 µM (inactive) | 35.2 µM (inactive) | 65.5 µM (inactive) | 42.1 µM (inactive) | 41.4 µM (inactive) | 55.8 µM (inactive) | 48.9 µM (inactive) | > 100 µM (inactive) | 24.3 µM (inactive) | 56.8 µM (inactive) | 40.7 µM (inactive) | 28 µM (inactive) | 32.6 | 18.3 µM (inactive) | 43.3 µM (inactive)
5 | N#CC(C(=O)CCC(=O)Nc1cccc(C(F)(F)F)c1)c1ccccc1 (centres undefined) | > 100 µM (inactive) | – | > 100 µM (inactive) | > 100 µM (inactive) | > 100 µM (inactive) | > 100 µM (inactive) | > 100 µM (inactive) | > 100 µM (inactive) | > 100 µM (inactive) | > 100 µM (inactive) | > 100 µM (inactive) | > 100 µM (inactive) | > 100 µM (inactive) | > 100 | > 100 µM (inactive) | > 100 µM (inactive)
6 | O=C(O)/C=C/c1nc2ccccc2c(=O)o1 | > 100 µM (inactive) | > 100 µM (inactive) | > 100 µM (inactive) | > 100 µM (inactive) | – | > 100 µM (inactive) | > 100 µM (inactive) | > 100 µM (inactive) | – | > 100 µM (inactive) | > 100 µM (inactive) | > 100 µM (inactive) | > 100 µM (inactive) | > 100 | > 100 µM (inactive) | > 100 µM (inactive)
7 | CN(C)CCNC(=O)c1cccc2nc3ccc4cccnc4c3nc12 | 0.457 µM (active) | 0.232 µM (active) | 0.631 µM (active) | 0.895 µM (active) | 0.224 µM (active) | 0.319 µM (active) | – | 0.0675 µM (active) | 0.298 µM (active) | 0.346 µM (active) | 0.172 µM (active) | 0.564 µM (active) | 0.348 µM (active) | 0.209 | 0.61 µM (active) | 0.635 µM (active)
8 | O=C(CCCCCCCCCCc1ccccc1)C1=C(O)CC(O)CC1=O (centres undefined) | 59.8 µM (inactive) | 45.2 µM (inactive) | 59.8 µM (inactive) | 25.4 µM (inactive) | 94.4 µM (inactive) | 24 µM (inactive) | 34.8 µM (inactive) | 76.9 µM (inactive) | > 100 µM (inactive) | 30.5 µM (inactive) | 96.2 µM (inactive) | 38.4 µM (inactive) | 20.7 µM (inactive) | – | 52.6 µM (inactive) | 34.9 µM (inactive)
9 | COC(=O)/C(=N/NC(N)=O)C(C(=O)OC)C(=O)C(=O)Nc1ccc(Cl)cc1 (centres undefined) | > 100 µM (inactive) | > 100 µM (inactive) | > 100 µM (inactive) | > 100 µM (inactive) | > 100 µM (inactive) | > 100 µM (inactive) | > 100 µM (inactive) | > 100 µM (inactive) | – | > 43.6 µM (inactive) | > 100 µM (inactive) | > 100 µM (inactive) | > 76.2 µM (inactive) | > 86.5 | > 100 µM (inactive) | > 100 µM (inactive)
10 | COc1cc(/C=C/c2csnn2)cc(OC)c1OC | > 100 µM (inactive) | – | > 100 µM (inactive) | > 100 µM (inactive) | > 100 µM (inactive) | > 100 µM (inactive) | > 100 µM (inactive) | > 100 µM (inactive) | 67 µM (inactive) | > 100 µM (inactive) | > 100 µM (inactive) | > 100 µM (inactive) | > 100 µM (inactive) | > 100 | > 100 µM (inactive) | > 100 µM (inactive)
11 | CC(=O)CC(=O)/C=C/c1cccs1 | 44.6 µM (inactive) | > 100 µM (inactive) | 54.2 µM (inactive) | > 100 µM (inactive) | > 100 µM (inactive) | > 100 µM (inactive) | 34.6 µM (inactive) | 70.1 µM (inactive) | 45 µM (inactive) | 47.1 µM (inactive) | 63 µM (inactive) | 55.2 µM (inactive) | 27.9 µM (inactive) | 47.8 | > 100 µM (inactive) | –
12 | CN[C@@H](C)[C@H](N)c1ccccc1 | > 100 µM (inactive) | > 100 µM (inactive) | > 100 µM (inactive) | – | > 100 µM (inactive) | > 100 µM (inactive) | > 100 µM (inactive) | > 100 µM (inactive) | – | > 100 µM (inactive) | > 100 µM (inactive) | > 100 µM (inactive) | – | > 100 | > 100 µM (inactive) | > 100 µM (inactive)
13 | Nc1ncnc2c1ncn2C1CC(OC2CCCCO2)C(CO)O1 (centres undefined) | – | > 100 µM (inactive) | > 100 µM (inactive) | > 100 µM (inactive) | – | > 100 µM (inactive) | > 100 µM (inactive) | > 100 µM (inactive) | > 100 µM (inactive) | > 100 µM (inactive) | > 100 µM (inactive) | > 100 µM (inactive) | > 100 µM (inactive) | > 100 | > 100 µM (inactive) | > 100 µM (inactive)
14 | CCOC(=O)CN1C(=O)c2cccc3cc([N+](=O)[O-])cc(c23)C1=O | 2.4 µM (inactive) | – | 3.35 µM (inactive) | 1.17 µM (inactive) | – | 10.7 µM (inactive) | 1.81 µM (inactive) | 1.59 µM (inactive) | 3.37 µM (inactive) | 0.459 µM (active) | 4.93 µM (inactive) | 2.52 µM (inactive) | 0.637 µM (active) | 1.65 | 4.7 µM (inactive) | 4.23 µM (inactive)
15 | CCN(CC)C(=O)Cc1[nH][nH]c(=O)c1C(=O)N(CC)CC | > 100 µM (inactive) | > 100 µM (inactive) | > 100 µM (inactive) | > 100 µM (inactive) | – | > 100 µM (inactive) | > 100 µM (inactive) | > 100 µM (inactive) | > 100 µM (inactive) | > 100 µM (inactive) | > 100 µM (inactive) | > 100 µM (inactive) | > 100 µM (inactive) | > 100 | > 100 µM (inactive) | > 100 µM (inactive)
16 | CCOc1cccc2c1N[S@@](=O)S2 | 49.2 µM (inactive) | – | > 100 µM (inactive) | > 100 µM (inactive) | > 100 µM (inactive) | > 100 µM (inactive) | 98.2 µM (inactive) | > 100 µM (inactive) | > 100 µM (inactive) | 53.3 µM (inactive) | > 100 µM (inactive) | > 100 µM (inactive) | > 100 µM (inactive) | > 100 | > 100 µM (inactive) | –
17 | O=C(CC1(O)C(=O)Nc2ccccc21)c1ccc(O)cc1O (centres undefined) | > 100 µM (inactive) | > 100 µM (inactive) | > 100 µM (inactive) | > 100 µM (inactive) | > 100 µM (inactive) | > 100 µM (inactive) | > 100 µM (inactive) | > 100 µM (inactive) | > 100 µM (inactive) | > 100 µM (inactive) | > 100 µM (inactive) | – | > 100 µM (inactive) | > 100 | > 100 µM (inactive) | –
18 | O=C1Nc2cc([N+](=O)[O-])c(Br)cc2C1=O | 18.7 µM (inactive) | 18.4 µM (inactive) | 16.6 µM (inactive) | 26.7 µM (inactive) | 19.1 µM (inactive) | 18.5 µM (inactive) | 17.6 µM (inactive) | 19.3 µM (inactive) | 20.9 µM (inactive) | 18.1 µM (inactive) | 18.4 µM (inactive) | 51.4 µM (inactive) | – | 18.9 | 18.1 µM (inactive) | > 10 µM (inactive)
19 | COC(=O)CC1N/C(=N\C#N)N(CCc2c[nH]c3ccccc23)C1=O (centres undefined) | > 100 µM (inactive) | > 100 µM (inactive) | > 100 µM (inactive) | – | – | > 100 µM (inactive) | > 100 µM (inactive) | > 100 µM (inactive) | > 100 µM (inactive) | > 100 µM (inactive) | > 100 µM (inactive) | > 100 µM (inactive) | > 100 µM (inactive) | > 100 | > 100 µM (inactive) | 34.5 µM (inactive)
20 | O=c1[nH]c(=O)n(C2OC3COC2C3O)cc1F (centres undefined) | – | > 100 µM (inactive) | > 100 µM (inactive) | > 100 µM (inactive) | > 100 µM (inactive) | 41.5 µM (inactive) | > 100 µM (inactive) | > 100 µM (inactive) | > 100 µM (inactive) | > 100 µM (inactive) | > 100 µM (inactive) | > 100 µM (inactive) | > 100 µM (inactive) | > 100 | > 100 µM (inactive) | > 100 µM (inactive)
